Patent US7776922B2, “Substituted [(phenylethanoyl)amino]benzamides” (Bayer Schering Pharma Aktiengesellschaft, priority 2004, dated 2010)

Target: T1, human IL8B receptor (Homo sapiens, UniProt P25025)
T1 construct: expressed in transfected cells; host or cells: CHO cells with mitochondrially localized aequorin, co-transfected with G-alpha-16
T1 sequence (P25025 1-360): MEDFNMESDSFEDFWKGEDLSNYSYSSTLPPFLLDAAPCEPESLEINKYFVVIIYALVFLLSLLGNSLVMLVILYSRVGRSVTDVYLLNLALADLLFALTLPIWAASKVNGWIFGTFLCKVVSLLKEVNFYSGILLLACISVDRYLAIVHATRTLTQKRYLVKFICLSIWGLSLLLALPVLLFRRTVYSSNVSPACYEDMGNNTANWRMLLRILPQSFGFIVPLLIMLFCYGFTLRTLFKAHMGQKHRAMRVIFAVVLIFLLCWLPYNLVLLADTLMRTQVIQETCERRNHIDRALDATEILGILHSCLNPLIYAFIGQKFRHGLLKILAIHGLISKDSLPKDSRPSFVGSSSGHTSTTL
Assay: Functional reporter assay for IL8B receptor antagonists (aequorin Ca2+ bioluminescence in transfected CHO cells)
Type: cell-based
Conditions: CHO cells with mitochondrially localized aequorin, human IL8B receptor and G-alpha-16; inhibition of IL8-induced Ca2+ transient
Description: Functional Reporter Assay for High Throughput Screening of IL8B Receptor Antagonists
CHO cells with mitochondrially localized aequorin are stably transfected with the human IL8B receptor and the G-alpha-16 protein. Activation of the IL8B receptor with IL8 or an endogenous P2Y receptor with ATP leads to Ca^2+ release. This intracellular Ca^2+ transient can be detected by bioluminescence with mitochondrially localized aequorin. IL8-induced Ca^2+ transients are inhibited by IL8B receptor antagonists.
2000 cells in 25 μl of complete medium with 10% FCS per well of a 384-well multititer plate are incubated at 37° C. and 5% CO2 for 24 h. After removal of the medium, 30 μl of an 11.8 μM coelenterazine solution in 2 mM Ca-Tyrode are added, and the cells are incubated at 37° C. in 5% CO2 for a further 4 hours. 10 μl of test substance in 2 mM Ca-Tyrode/0.1% BSA are added, and the cells are incubated at room temperature for 5 minutes. The IL8B receptor is activated by adding 25 μl of a 0.78-2.6 nM IL8 solution in 2 mM Ca-Tyrode/0.1% BSA, or the endogenous P2Y receptor is activated by adding 25 μl of a 7.8-26 μM ATP solution in 2 mM Ca-Tyrode. The bioluminescence is recorded at the same time. IC50 values are calculated from dose-response plots using the Marquardt-Levenberg fit (Table A).

Row | Structure (SMILES) | IC50 [µM]
1 | CCC(C(=O)Nc1ccc(-c2cc3ccccc3s2)c(C(N)=O)c1)c1cccc(F)c1 (stereo not shown) [Example 30, 2-(1-Benzothien-2-yl)-5-{[2-(3-fluorophenyl)butanoyl]amino}benzamide] | 0.077
2 | CCC(C(=O)Nc1ccc(-c2cc3ccccc3s2)c(C(N)=O)c1)c1nccs1 (stereo not shown) [Example 26, 2-(1-Benzothien-2-yl)-5-{[2-(1,3-thiazol-2-yl)butanoyl]amino}benzamide] | 0.082
3 | CCC(C(=O)Nc1ccc(-c2cc3ccccc3s2)c(C(N)=O)c1)c1ccccc1 (single isomer, unassigned) [Example 1-2, 2-(1-Benzothien-2-yl)-5-[(2-phenylbutanoyl)amino]benzamide] | 0.1
4 | CCC(C(=O)Nc1ccc(-c2ccc3sccc3c2)c(C(N)=O)c1)c1ccccc1 (single isomer, unassigned) [Example 39-2, 2-(1-Benzothien-5-yl)-5-[(2-phenylbutanoyl)amino]benzamide] | 0.064
5 | CCC(C(=O)Nc1ccc(-c2ccc(-c3ccccc3)cc2)c(C(N)=O)c1)c1cccs1 (stereo not shown) [Example 29, 4-{[2-(2-Thienyl)butanoyl]amino}-1,1′:4′,1″-terphenyl-2-carboxamide] | 0.092
6 | CCOc1ccc2cc(-c3ccc(NC(=O)C(CC)c4ccccc4)cc3C(N)=O)ccc2c1 (stereo not shown) [Example 2, 2-(6-Ethoxy-2-naphthyl)-5-[(2-phenylbutanoyl)amino]benzamide] | 0.2
7 | CCC(C(=O)Nc1ccc(-c2cc3ccccc3s2)c(C(N)=O)c1)c1ccc2c(c1)OCCO2 (stereo not shown) [Example 35, 2-(1-Benzothien-2-yl)-5-{[2-(2,3-dihydro-1,4-benzodioxin-6-yl)butanoyl]amino}benzamide] | 0.074
